This is an account of results in ChEMBL document CHEMBL1201862, “PubChem BioAssay data set” (2004).

Among the test systems are SNB-19; OVCAR-8; EKVX; SK-MEL-28; NCI-H23; K562; HL-60; HCT-116; HCT-15; MOLT-4; NCI-H460; SK-MEL-2; NCI-H226; SK-OV-3; KM-20L2; A498; SNB-78; M19-MEL; MDA-N.
Test in all cases: inhibition of tumour cell growth, NCI panel, 48 h

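How tested: cells in 96-well plates exposed to compound for 48 hours at five concentrations. GI50: concentration for 50% inhibition of growth.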 Calls of active or inactive are those of the source. Cut-off read from the data, not from the text of the source: active = GI50 up to about 1.1 µM and inactive = higher.

As for `O=C(c1cc2ccccc2[nH]1)C(O)(c1cc2ccccc2[nH]1)c1cc2ccccc2[nH]1`, the GI50 is > 246 µM (inactive) in the assay on SNB-19; > 246 µM (inactive) in the assay with OVCAR-8; > 246 µM (inactive) in the assay with EKVX; > 246 µM (inactive) in the assay with SK-MEL-28; 112 µM (inactive) with NCI-H23; > 246 µM (inactive) in the assay with K562. Moreover, the GI50 with HL-60 was > 246 µM (inactive); in the assay with HCT-116 it was 16.6 µM (inactive); in the assay with HCT-15, > 246 µM; in the assay with MOLT-4 it was > 246 µM (inactive); in the assay with NCI-H460, > 246 µM (inactive); with SK-MEL-2, > 246 µM (inactive). Also, the GI50 in the assay with NCI-H226 is 50.9 µM (inactive); with SK-OV-3, > 246 µM (inactive); in the assay with KM-20L2, > 246 µM (inactive).
For `CC(=O)c1sc(Nc2nnc(-c3ccc(-c4nnc(Nc5nc(C)c(C(C)=O)s5)o4)cc3)o2)nc1C`, the GI50 in the assay with SNB-19, in the assay on OVCAR-8, in the assay on EKVX, in the assay with SK-MEL-28, with NCI-H23 and in the assay on K562 was > 100 µM (inactive) each time. Besides, the GI50 in the assay on A498 is > 100 µM (inactive); in the assay on HL-60, > 100 µM (inactive); in the assay with SNB-78, > 100 µM (inactive); in the assay with HCT-116, > 100 µM (inactive); in the assay with HCT-15, > 100 µM; in the assay on MOLT-4 it was > 100 µM (inactive). Besides, the GI50 in the assay on NCI-H460 is > 100 µM (inactive); with NCI-H226 it was > 100 µM (inactive); with SK-OV-3, > 10 µM (inactive); with KM-20L2, > 100 µM (inactive).
Turning to `O=C1c2ccccc2C(=O)c2nc3c(O)cccc3cc21`, the GI50 in the assay on SNB-19 was 14.7 µM (inactive); in the assay with OVCAR-8, 26 µM (inactive); in the assay with EKVX, 14.5 µM (inactive); in the assay on SK-MEL-28, > 100 µM (inactive); in the assay with NCI-H23, > 100 µM (inactive); in the assay with M19-MEL it was 2.12 µM (inactive). Besides, the GI50 was 5.83 µM (inactive) in the assay with K562; 25.9 µM (inactive) with A498; 4.12 µM (inactive) in the assay on HCT-116; 13 µM in the assay on HCT-15; 3.38 µM (inactive) in the assay with MOLT-4; 9.08 µM (inactive) with NCI-H460. Further, the results for the GI50 in the assay with SK-MEL-2, in the assay on NCI-H226 and in the assay on KM-20L2 were > 100 µM (inactive), 74.5 µM (inactive) and 26.7 µM (inactive), respectively.
Turning to `Cc1cc(NS(=O)(=O)c2ccc(Nc3c4ccccc4nc4ccc(C(=O)Nc5ccc(S(N)(=O)=O)cc5)cc34)cc2)no1`, the GI50 in the assay with SNB-19, with OVCAR-8, in the assay on EKVX, in the assay with SK-MEL-28, with NCI-H23 and in the assay on K562 was > 100 µM (inactive) in each case. Besides, the GI50 in the assay with MDA-N was > 100 µM (inactive); in the assay on A498 it was > 100 µM (inactive); in the assay with HL-60, > 100 µM (inactive); in the assay on HCT-116 it was > 100 µM (inactive); in the assay on HCT-15 it was > 100 µM; with MOLT-4 it was > 100 µM (inactive). Besides, the GI50 in the assay on NCI-H460, in the assay with SK-MEL-2, in the assay with NCI-H226 and in the assay on SK-OV-3 was > 100 µM (inactive) in each case.
For the compound `COc1c2c(nc3ccccc13)-c1cc(C(CC(=O)OC(C)(C)C)C(=O)OC(C)C)c(CO)c(=O)n1C2` (centres undefined), the GI50 with SNB-19 was 53.8 µM (inactive); in the assay on OVCAR-8, 71.1 µM (inactive); with EKVX it was > 100 µM (inactive); in the assay with SK-MEL-28 it was > 73.8 µM (inactive); in the assay with NCI-H23, 55.7 µM (inactive); in the assay with K562, 33.6 µM (inactive). The GI50 was > 100 µM (inactive) in the assay on MDA-N; 57.3 µM (inactive) in the assay with A498; > 25.2 µM (inactive) in the assay on HL-60; 37 µM (inactive) in the assay on HCT-116; > 78.2 µM with HCT-15; 3.67 µM (inactive) in the assay with MOLT-4. The GI50 was 10.4 µM (inactive) in the assay on NCI-H460, > 100 µM (inactive) in the assay with SK-MEL-2, 67.8 µM (inactive) with NCI-H226 and > 40.2 µM (inactive) in the assay on SK-OV-3.
As to `O=C(CC1(O)C(=O)Nc2ccc(Br)cc21)c1cccc([N+](=O)[O-])c1` (centres undefined), the GI50 in the assay on SNB-19 is 61.5 µM (inactive); with OVCAR-8, 35.5 µM (inactive); in the assay on EKVX it was 40.7 µM (inactive); in the assay on SK-MEL-28 it was 35.8 µM (inactive); in the assay with NCI-H23 it was 43.9 µM (inactive); in the assay with K562 it was 20.6 µM (inactive). Also, the GI50 with HL-60 is 27.7 µM (inactive); with SNB-78, 37.8 µM (inactive); in the assay with HCT-15, 56 µM; with MOLT-4 it was 24.9 µM (inactive); in the assay on NCI-H460, > 100 µM (inactive); with SK-MEL-2 it was 54.7 µM (inactive). For the same compound, the values for the GI50 in the assay with NCI-H226, in the assay on SK-OV-3 and in the assay with KM-20L2 were 26.9 µM (inactive), > 100 µM (inactive) and 74.6 µM (inactive), respectively.
For the compound `CCCCCOc1ccc(NC2=C(Cl)C(=O)c3c(O)ccc(O)c3C2=O)cc1`, the GI50 in the assay with SNB-19 is 7.87 µM (inactive); in the assay on OVCAR-8, 2.99 µM (inactive); in the assay with EKVX, > 10 µM (inactive); in the assay with SK-MEL-28 it was 2.84 µM (inactive); with NCI-H23, 3.27 µM (inactive); in the assay on K562, 3.27 µM (inactive). For the same compound, the GI50 with MDA-N was 3.03 µM (inactive); in the assay with A498, > 10 µM (inactive); in the assay on HL-60, 1.37 µM (inactive); in the assay with HCT-116, 2.88 µM (inactive); in the assay with HCT-15, 2.02 µM; in the assay with MOLT-4 it was 3.7 µM (inactive). For the same compound, the GI50 with NCI-H460 was 4.13 µM (inactive); with SK-MEL-2 it was > 10 µM (inactive); with NCI-H226, > 10 µM (inactive); in the assay on SK-OV-3 it was > 10 µM (inactive).
On to `CSc1nc(=O)n(CCC#N)nc1SC`, for which the GI50 with SNB-19 is > 100 µM (inactive); with OVCAR-8, 59.6 µM (inactive); in the assay with EKVX, > 100 µM (inactive); in the assay on SK-MEL-28, 14 µM (inactive); in the assay on NCI-H23, 55.3 µM (inactive); with K562, 25.6 µM (inactive). Further, the GI50 in the assay on MDA-N is 20.4 µM (inactive); with A498 it was > 100 µM (inactive); in the assay on HL-60 it was 4.19 µM (inactive); in the assay with HCT-116, 16.5 µM (inactive); in the assay on HCT-15 it was 21.9 µM; in the assay with MOLT-4, 23.7 µM (inactive). Moreover, the GI50 with NCI-H460 was > 100 µM (inactive); with SK-MEL-2, 14.5 µM (inactive); with NCI-H226 it was 39.3 µM (inactive); in the assay on SK-OV-3, > 100 µM (inactive).
Take `O=S1(=O)OCCOS(=O)(=O)C1(Br)Br`: the GI50 with SNB-19 is 80.7 µM (inactive); in the assay on OVCAR-8, > 100 µM (inactive); in the assay with EKVX, > 100 µM (inactive); with SK-MEL-28 it was > 100 µM (inactive); in the assay on NCI-H23, > 100 µM (inactive); with M19-MEL, > 100 µM (inactive). Further, the GI50 in the assay with K562, with HL-60, in the assay with SNB-78, with HCT-116, with MOLT-4 and in the assay on SK-MEL-2 was > 100 µM (inactive) each time. The values for the GI50 in the assay on NCI-H226 and in the assay with SK-OV-3 were 0.375 µM (active) and > 100 µM (inactive), respectively.
